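Assay format: 96-well plates, 48-hour exposure. GI50 marks 50% less growth.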 Calls of active or inactive are those of the source. Rule as the data show it: active = GI50 up to about 1.1 µM and inactive = higher.
Columns and labels:
Experiment in all cases: NCI tumour cell line growth inhibition, 48 h
[1] = test system: COLO 205
[2] = test system: NCI-H226
[3] = test system: SK-MEL-2
[4] = test system: ACHN
[5] = test system: KM12
[6] = test system: MCF7
[7] = test system: DU-145
[8] = test system: SNB-19
[9] = test system: Malme-3M
[10] = test system: U-251
[11] = test system: TK-10
[12] = test system: SF-539
[13] = test system: SK-MEL-28
[14] = test system: HCT-15
[15] = test system: OVCAR-5
[16] = test system: HCC 2998
[17] = test system: SK-MEL-5
[18] = test system: M14
[19] = test system: HOP-62
[20] = test system: UACC-62
[21] = test system: HOP-92
[22] = test system: HCT-116
[23] = test system: HT-29
[24] = test system: BT-549
[25] = test system: IGROV-1
[26] = test system: SW-620
[27] = test system: UACC-257
[28] = test system: NCI-H460
[29] = test system: SK-OV-3
[30] = test system: RXF 393
[31] = test system: SR
[32] = test system: RPMI-8226
[33] = test system: CCRF-CEM
[34] = test system: K562
[35] = test system: EKVX
[36] = test system: SF-295
[37] = test system: OVCAR-3
[38] = test system: NCI/ADR-RES
[39] = test system: MDA-MB-231
[40] = test system: NCI-H522
[41] = test system: MOLT-4
[42] = test system: NCI-H23
[43] = test system: PC-3
[44] = test system: MDA-MB-435
[45] = test system: OVCAR-8
[46] = test system: MDA-N
[47] = test system: SN12C
[48] = test system: SF-268
[49] = test system: CAKI-1
[50] = test system: LOX IMVI
[51] = test system: A549
[52] = test system: OVCAR-4
[53] = test system: 786-0
[54] = test system: SNB-75

For O=CC12C3CCC1C2C(=O)C3 (centres undefined), the GI50 [1] was > 100 µM (inactive), the GI50 [2] was > 100 µM (inactive) and the GI50 [3] was > 100 µM (inactive). The GI50 [4] was > 100 µM (inactive), the GI50 [5] was > 100 µM (inactive) and the GI50 [6] was > 100 µM (inactive). For the same compound, the GI50 [7] was > 100 µM (inactive), the GI50 [8] was > 100 µM (inactive) and the GI50 [9] was > 100 µM (inactive). The GI50 [10] was > 100 µM (inactive), the GI50 [11] was > 100 µM (inactive) and the GI50 [12] was > 100 µM (inactive). For the same compound, the GI50 [13] was > 100 µM (inactive), the GI50 [14] was > 100 µM and the GI50 [15] was > 100 µM (inactive). For the same compound, the GI50 [16] was > 100 µM (inactive), the GI50 [17] was > 100 µM (inactive) and the GI50 [18] was > 100 µM (inactive). The GI50 [19] was > 100 µM (inactive), the GI50 [20] was > 100 µM (inactive) and the GI50 [21] was > 100 µM (inactive). For the same compound, the GI50 [22] was > 100 µM (inactive), the GI50 [23] was > 100 µM (inactive) and the GI50 [24] was > 100 µM (inactive). The GI50 [25] was > 100 µM (inactive), the GI50 [26] was > 100 µM (inactive) and the GI50 [27] was > 100 µM (inactive). For the same compound, the GI50 [28] was > 100 µM (inactive), the GI50 [29] was > 100 µM (inactive) and the GI50 [30] was > 100 µM (inactive). For the same compound, the GI50 [31] was > 100 µM (inactive), the GI50 [32] was > 100 µM (inactive) and the GI50 [33] was > 100 µM (inactive). For the same compound, the GI50 [34] was > 100 µM (inactive), the GI50 [35] was > 100 µM (inactive) and the GI50 [36] was > 100 µM (inactive). The GI50 [37] was > 100 µM (inactive), the GI50 [38] was > 100 µM (inactive) and the GI50 [39] was > 100 µM (inactive). For the same compound, the GI50 [40] was > 100 µM (inactive), the GI50 [41] was > 100 µM (inactive) and the GI50 [42] was > 100 µM (inactive). For the same compound, the GI50 [43] was > 100 µM (inactive), the GI50 [44] was > 100 µM (inactive) and the GI50 [45] was > 100 µM (inactive). The GI50 [46] was > 100 µM (inactive), the GI50 [47] was > 100 µM (inactive) and the GI50 [48] was > 100 µM (inactive). The GI50 [49] was > 100 µM (inactive), the GI50 [50] was > 100 µM (inactive) and the GI50 [51] was > 100 µM (inactive). For the same compound, the GI50 [52] was > 100 µM (inactive), the GI50 [53] was > 100 µM (inactive) and the GI50 [54] was > 100 µM (inactive).

Reference: ChEMBL document CHEMBL1201862, “PubChem BioAssay data set” (2004)
